{"source": "patent US20030064426A1", "about": "“Reagents and methods for identifying and modulating expression of genes regulated by CDK inhibitors” (priority 2001, published 2003)", "key": {"[1]": {"tested_on": "induction of luciferase expression by p21 from the NK4 promoter in LuNK4p21 cells", "experiment": "Luciferase assay in LuNK4p21 cell line (NK4 promoter-luciferase, IPTG-inducible p21)", "assay_type": "cell-based, human", "conditions": "for induction of luciferase expression by IPTG in the presence of NSAID: 20 hr treatment after 16 hrs with 50 μM IPTG", "description": "To develop a stably transfected cell line with p21-regulated luciferase expression, the NK4 promoter-luciferase construct, described in Example 8 and termed pLuNK4, was introduced into HT1080 p21-9 cells, which carry IPTG-inducible p21, by cotransfection with pBabePuro carrying puromycin N-acetyltransferase as a selectable marker. Transfection was carried out using LIPOFECTAMTNE 2000 (Life Technologies, Inc., Gaithersburg, Md.), using a 10:1 ratio of pLuNK4 and pBabePuro. Stable transfectants were selected using 1 μg/mL puromycin for 5 days.\nThis assay was performed as follows. Cells were plated at a density of 40,000 cells/well in 12 well plates in 1 mL of media containing penicillin/streptomycin, glutamine and 10% fetal calf serum (FCS). After attachment, cells were treated with 50 μM IPTG or left untreated for different periods of time. Luciferase activity was then measured as described in Example 8 above. An additional aliquot was removed from the cell lysate to measure protein concentration using the Bio-Rad protein assay kit (Bradford assay). Luciferase activity for each sample was normalized to protein content and expressed as luciferase activity/μg protein.\nLuciferase assays were performed substantially as described in Example 9. Luciferase activity was measured after 16 hrs of incubation with or without 50 μM IPTG, followed by an additional 20 hr treatment in the presence or in the absence of 20 mM sodium salicylate, 1 mM sulindac, or 10 mM aspirin. […] NSAID concentrations were based on the pharmacologic concentrations of these agents in the serum of patients required for their anti-inflammatory properties (Yin et al., 1998, ibid.)."}, "[2]": {"tested_on": "NFκB transcriptional activity (pNFkB-Luc) in HT1080 p21-9 cells", "experiment": "Transient transfection assay with pNFkB-Luc in HT1080 p21-9 cells", "assay_type": "cell-based, human", "conditions": "50 μM IPTG three days; pNFkB-Luc mixed with negative control E1AΔN/C", "description": "Plasmid clones for each promoter construct were tested for p21-regulation by a transient transfection assay. Transient transfection of HT1080 p21-9 cells was carried out by electroporation, essentially as described in the Bio-Rad protocols. For each electroporation, p21-9 cells were grown to confluence in 15 cm plates using DMEM supplemented with 10% FC2 serum and containing penicillin, streptomycin and glutamine.. The cells were then trypsinized, resuspended in Opti-MEM medium (GibcoBRL) and spun down at 1,000 rpm in an IEC HN-SII centrifuge for 10 minutes. Following centrifugation the media were aspirated and the cells were again resuspended in Opti-MEM at a concentration of 18-20 million cells per ml. […] In preliminary experiments, cell survival and attachment after electroporation was determined to be approximately 33%. […] Luciferase activity was measured using a Turner 20/20 luminometer at 52.1% sensitivity with a 5 second delay period and 10-15 second integration time.\nTo determine if IPTG-inducible p21 expression in HT 1080 p21-9 cells stimulates the transcriptional activity of NFκB, we have used transient transfection assays to investigate the effect of p21 induction on luciferase expression from the plasmid pNFkB-Luc, commercially available from Stratagene. […] The luciferase activity was measured and normalized to protein content in each sample."}, "[3]": {"tested_on": "human fibrosarcoma cell line HS 15.T", "experiment": "Mitogenic activity assay, 3H-thymidine incorporation", "assay_type": "cell-based", "conditions": "HS 15.T cells", "description": "(§1) To verify the induction of secreted mitogenic and anti-apoptotic factors by p21, conditioned media from IPTG-treated p21-9 cells were tested to investigate whether they would have an effect on cell growth and apoptosis. In these experiments, conditioned media were prepared by plating 10^6 p21-9 cells per 15 cm plate in the presence of DMEM/10% FCS. The next day, IPTG was added to a final concentration of 50 μM, and this media was replaced three days later with DMEM supplemented with 0.5% FCS and 50 μM IPTG. Two days later (days 3-5 of IPTG treatment), this conditioned media was collected and stored at 4° C. up to 15 days before use. Control media were prepared by adding IPTG-free DMEM/0.5% FCS to untreated cells grown to the same density as IPTG-treated cells and collecting the media two days thereafter.\nThe slow-growing human fibrosarcoma cell line HS 15.T was used to detect mitogenic activity in these conditioned media. For mitogenic activity assays, both types of conditioned media, as well as fresh media and 1:1 mixtures of conditioned media and fresh media were used to test mitogenic activity. In these experiments, the conditioned media were supplemented with 1% or 2% FCS. […] Cells were then collected and their ^3H-thymidine incorporation determined as described by Mosca et al. (1992, Mol. Cell. Biol. 12: 4375-4383)."}, "[4]": {"tested_on": "mouse embryo fibroblast line C8", "experiment": "Apoptosis assay in serum-starved C8 cells", "assay_type": "cell-based", "description": "as §1\nThe effect of this conditioned media on apoptosis was also determined. These experiments used a mouse embryo fibroblast line C8, immortalized by E1A. […] Apoptosis was analyzed by plating 3×10^5 C8 cells per 6-cm plate, and replacing the media on the following day with fresh media supplemented with 0.4% serum or with conditioned media (no fresh serum added). DNA content analysis and DAPI staining were carried out after 24 hrs and 48 hrs, and relative cell numbers were measured by methylene blue staining (Perry et al., 1992, Mutat. Res. 276: 189-197) after 48 hrs in low-serum media."}, "[5]": {"tested_on": "RNA expression of the endogenous p21-inducible genes in LuNK4p21 cells", "experiment": "RT-PCR of endogenous p21-inducible genes in LuNK4p21 cells", "assay_type": "cell-based, human", "description": "To determine whether NFκB-inhibiting NSAID inhibited not only the induction of transcription from the NK4 promoter but also RNA expression of the endogenous p21-inducible genes, LuNK4p21 cells were plated at 125,000 cells per well in 6-well plates and were either untreated or treated with 50 μM IPTG for 48 hrs (the period of time required for maximal stimulation of p21 -inducible genes; Chang et al., 2000, Proc. Natl. Acad. Sci. USA 97: 4291-4296), in the presence or in the absence of sulindac, at 250 μM, 500 μM or 1 mM concentrations. After this incubation, RNA was extracted from the cells using Qiagen RNeasy Mini Kit, and relative RNA levels of several p21-inducible genes were determined by reverse transcription-PCR (RT-PCR), essentially as described by Noonan et al. (1990, Proc. Natl. Acad. Sci. USA 87: 7160-7164), except that β-actin rather than β2-microglobulin was used for cDNA normalization. The PCR cycles were as follows: for the 1st cycle, 3 min for denaturation, 2 min for annealing and 2 min for extension, and the rest of cycles, 30 sec for denaturation; 30 sec for annealing; and 1 min for extension."}, "[6]": {"conditions": "sulindac 250 μM, 500 μM or 1 mM"}}, "data": [{"smiles": "CC(C)S[C@@H]1O[C@H](CO)[C@H](O)[C@H](O)[C@H]1O", "note": "[IPTG, isopropyl-β-thiogalactoside]", "values": [{"measurement": "increase of luciferase expression by IPTG", "setting": "[1]; 50 μM IPTG, absence of NSAID", "result": "3-4 fold"}, {"measurement": "increase in luciferase levels in IPTG-treated cells", "setting": "[1]; LuNK4p21 cell line, about 17 hrs", "result": "approximately 3 fold"}, {"measurement": "induction of pNFkB-Luc luciferase in the presence of IPTG", "setting": "[2]", "result": "up to 15 fold"}, {"measurement": "effect of the addition of IPTG to fresh media on 3H-thymidine incorporation", "setting": "[3]", "result": "no effect"}, {"measurement": "effect of IPTG by itself on apoptosis", "setting": "[4]", "result": "no effect"}]}, {"smiles": "CC(=O)Oc1ccccc1C(=O)O", "note": "[aspirin]", "values": [{"measurement": "induction of luciferase expression by IPTG in the presence of NSAID", "setting": "[1]; 10 mM aspirin", "result": "completely or almost completely abolished"}]}, {"smiles": "CC(C)Cc1ccc(C(C)C(=O)O)cc1", "note": "(stereo not shown) [ibuprofen]", "values": [{"measurement": "induction of luciferase expression by IPTG in the presence of NSAID", "setting": "[1]; 25 μM", "result": "no significant difference"}]}, {"smiles": "COc1ccc2c(c1)c(CC(=O)O)c(C)n2C(=O)c1ccc(Cl)cc1", "note": "[indomethacin]", "values": [{"measurement": "induction of luciferase expression by IPTG in the presence of NSAID", "setting": "[1]; 25 μM", "result": "no significant difference"}]}, {"smiles": "O=C([O-])c1ccccc1O.[Na+]", "note": "[salicylate, sodium salicylate]", "values": [{"measurement": "induction of luciferase expression by IPTG in the presence of NSAID", "setting": "[1]; 20 mM sodium salicylate", "result": "completely or almost completely abolished"}]}, {"smiles": "CC1=C(CC(=O)O)c2cc(F)ccc2/C1=C\\c1ccc([S+](C)[O-])cc1", "note": "(stereo not shown) [sulindac]", "values": [{"measurement": "induction of luciferase expression by IPTG in the presence of NSAID", "setting": "[1]; 1 mM sulindac", "result": "completely or almost completely abolished"}, {"measurement": "effects of IPTG on the APP gene (RT-PCR)", "setting": "[5]; 250 and 500 μM sulindac", "result": "diminished"}, {"measurement": "gene expression of all the other tested genes (RT-PCR)", "setting": "[5]; absence of IPTG, sulindac 250 μM, 500 μM or 1 mM", "result": "dose-dependent increase"}, {"measurement": "NK4 gene expression (RT-PCR)", "setting": "[5]; absence of IPTG, sulindac 250 μM, 500 μM or 1 mM, 48 hrs", "result": "very little effect"}, {"measurement": "ability of p21 to induce transcription for most of the tested genes", "setting": "[5]; moderate dose of sulindac (250 μM)", "result": "inhibits"}, {"measurement": "effects of IPTG on the CTGF gene (RT-PCR)", "setting": "[5]; only by 250 μM sulindac", "result": "diminished"}, {"measurement": "effects of IPTG on the Mac2-binding protein (Mac2-BP) gene (RT-PCR)", "setting": "[5]; only by 250 μM sulindac", "result": "diminished"}, {"measurement": "effects of IPTG on the p66Shc gene (RT-PCR)", "setting": "[5]; only by 250 μM sulindac", "result": "diminished"}, {"measurement": "NK4 RNA levels (RT-PCR)", "setting": "[5]; presence of 50 μM IPTG, sulindac 250 μM, 500 μM or 1 mM, 48 hrs", "result": "dose-dependent decrease"}, {"measurement": "gene expression of the other tested genes (RT-PCR)", "setting": "[5]; presence of IPTG, highest tested dose of sulindac (1 mM)", "result": "did not decrease"}, {"measurement": "IPTG-induced RNA levels of prosaposin (RT-PCR)", "setting": "[5]; [6]", "result": "None of the tested sulindac concentrations produced a significant decrease"}, {"measurement": "IPTG-induced RNA levels of superoxide dismutase 2 (SOD2) (RT-PCR)", "setting": "[5]; [6]", "result": "None of the tested sulindac concentrations produced a significant decrease"}, {"measurement": "t-TGase RNA (RT-PCR), compared with NK4", "setting": "[5]; with and without 50 μM IPTG, sulindac 250 μM, 500 μM or 1 mM, 48 hrs", "result": "Very similar results"}]}]}
